Assay results taken from patent US20250188032A1, “NITROGEN-CONTAINING HETEROCYCLIC COMPOUNDS AND USES THEREOF” (BNH RESEARCH CO., LTD., priority 2022, published 2025).

tested on: 293T cells; assay: Cytotoxicity test (CCK-8 cell viability) in 293T cells; format: cell-based, human; settings: 10 uM, 24 hours co-incubation, 293T cell line, % of control
Experimental: Human undifferentiated neuroblastoma cell line SH-SY5Y and human embryonic kidney cell line (HEK)-293T were purchased from Korean Cell Line Bank (Korea) and Takara (Japan), respectively. Cells were grown in HyClone Minimal Essential Medium (MEM) and Dulbecco's Modified Eagle Medium (DMEM), respectively, supplemented with 10% (v/v) fetal bovine serum (FBS), penicillin (100 U/mL), and streptomycin ([…]). Cells were maintained in a humidified atmosphere of 95% air and 5% CO2 at 37° C. Cells were passaged 10 times at maximum. Cells were dissociated using 0.05% trypsin-EDTA solution and the cells were seeded in new culture dishes for maintenance.
To examine the cytotoxicity of compounds described herein in human cell lines, SH-SY5Y and 293T cells were used. Approximately 8,000 cells (for 293T) and 15,000 cells (for SH-SY5Y) were plated per well of a 96-well plate (SPL Life Sciences Co., Ltd., Pocheon, Korea). After incubating at 37° C. for 24 hours in a humidified atmosphere containing 5% CO2, the culture medium was replaced by a series of concentrations of test compounds diluted in the corresponding culture medium. The time of co-incubation was 24 hours and six replicates were made for each measurement. Finally, 10 μL of CCK-8 reagent (Dojindo Laboratories, Rockville, MD) was added to each well, and after incubation at 37° C. for 3 minutes, the OD at 450 nm was measured using a multifunction microplate reader (Tecan Infinite M200 Pro). These measurements were compared to that of a control and expressed as a percentage of the control to calculate cell viability. The IC50 value was calculated using SPSS software. To do this, the absorbance of the blank wells with only growth medium is subtracted from the values or the wells with cells. The readout value of background (vehicle) was set as a 100% viability, and then the percent viability for each test solution was calculated.
Cell viability (%)=[(As-Ab)/(Ac-Ab)]×100
The data was presented as the mean value and standard error of the mean (S.E.M.). Statistical analysis was performed with the one-way ANOVA with Tukey's post hoc test (GraphPad Prism 5 software package, version 5.02, GraphPad Software Inc. USA). Significance was accepted at p<0.05.

Row | SMILES | Cell viability test results (CCK) 10 uM [%<]
1 | C[C@H]1CCCCN1C(=O)Cc1ccc(F)cc1Cl [BnH12005, (S)-2-(2-chloro-4-fluorophenyl)-1-(2-methylpiperidin-1-yl)ethan-1-one] | 99
2 | C[C@H]1CC[C@@H](C(=O)O)CN1C(=O)CC1CCCCC1 [BnH12006, (3R,6S)-1-(2-cyclohexylacetyl)-6-methylpiperidine-3-carboxylic acid] | 99
3 | C[C@H]1CC[C@@H](C(=O)O)CN1C(=O)Cc1ccccc1 [BnH12007, (3R,6S)-6-methyl-1-(2-phenylacetyl)piperidine-3-carboxylic acid] | 95
4 | C[C@H]1CC[C@@H](C(=O)NO)CN1C(=O)Cc1ccc(F)cc1Cl [BnH12009, (3R,6S)-1-(2-(2-chloro-4-fluorophenyl)acetyl)-N-hydroxy-6-methylpiperidine-3-carboxamide] | 95
5 | O=C(NO)[C@@H]1CCCN1C(=O)Cc1ccc(F)cc1Cl [BnH12016, (S)-1-(2-(2-chloro-4-fluorophenyl)acetyl)-N-hydroxypyrrolidine-2-carboxamide] | 99
6 | O=C(NO)[C@H]1CCCN1C(=O)c1ccccc1 [BnH12018, (R)-1-benzoyl-N-hydroxypyrrolidine-2-carboxamide] | 90
7 | COc1ccc(CC(=O)N2C[C@H](C(=O)O)CC[C@@H]2C)cc1 [BnH12025, (3R,6S)-1-(2-(4-methoxyphenyl)acetyl)-6-methylpiperidine-3-carboxylic acid] | 90
8 | C[C@H]1CC[C@@H](C(=O)[O-])CN1C(=O)Cc1cccnc1.[Na+] [BnH12038, Sodium (3R,6S)-6-methyl-1-(2-(pyridin-3-yl)acetyl)piperidine-3-carboxylate] | 85
9 | C[C@H]1CC[C@@H](C(=O)[O-])CN1C(=O)Cc1ccccn1.[Na+] [BnH12039, Sodium (3R,6S)-6-methyl-1-(2-(pyridin-2-yl)acetyl)piperidine-3-carboxylate] | 95
10 | C[C@H]1CCCCN1C(=O)Cc1cccnc1 [BnH12060, (S)-1-(2-methylpiperidin-1-yl)-2-(pyridin-3-yl)ethan-1-one] | 99

same assay, conditions: 100 uM, 24 hours co-incubation, 293T cell line, % of control

Row | SMILES | Cell viability test results (CCK) 100 uM [%<]
11 | C[C@H]1CCCCN1C(=O)Cc1ccc(F)cc1Cl [BnH12005, (S)-2-(2-chloro-4-fluorophenyl)-1-(2-methylpiperidin-1-yl)ethan-1-one] | 90
12 | C[C@H]1CC[C@@H](C(=O)O)CN1C(=O)CC1CCCCC1 [BnH12006, (3R,6S)-1-(2-cyclohexylacetyl)-6-methylpiperidine-3-carboxylic acid] | 95
13 | C[C@H]1CC[C@@H](C(=O)O)CN1C(=O)Cc1ccccc1 [BnH12007, (3R,6S)-6-methyl-1-(2-phenylacetyl)piperidine-3-carboxylic acid] | 95
14 | C[C@H]1CC[C@@H](C(=O)NO)CN1C(=O)Cc1ccc(F)cc1Cl [BnH12009, (3R,6S)-1-(2-(2-chloro-4-fluorophenyl)acetyl)-N-hydroxy-6-methylpiperidine-3-carboxamide] | 90
15 | O=C(NO)[C@@H]1CCCN1C(=O)Cc1ccc(F)cc1Cl [BnH12016, (S)-1-(2-(2-chloro-4-fluorophenyl)acetyl)-N-hydroxypyrrolidine-2-carboxamide] | 90
16 | O=C(NO)[C@H]1CCCN1C(=O)c1ccccc1 [BnH12018, (R)-1-benzoyl-N-hydroxypyrrolidine-2-carboxamide] | 90
17 | COc1ccc(CC(=O)N2C[C@H](C(=O)O)CC[C@@H]2C)cc1 [BnH12025, (3R,6S)-1-(2-(4-methoxyphenyl)acetyl)-6-methylpiperidine-3-carboxylic acid] | 80
18 | C[C@H]1CC[C@@H](C(=O)[O-])CN1C(=O)Cc1cccnc1.[Na+] [BnH12038, Sodium (3R,6S)-6-methyl-1-(2-(pyridin-3-yl)acetyl)piperidine-3-carboxylate] | 85
19 | C[C@H]1CC[C@@H](C(=O)[O-])CN1C(=O)Cc1ccccn1.[Na+] [BnH12039, Sodium (3R,6S)-6-methyl-1-(2-(pyridin-2-yl)acetyl)piperidine-3-carboxylate] | 90
20 | C[C@H]1CCCCN1C(=O)Cc1cccnc1 [BnH12060, (S)-1-(2-methylpiperidin-1-yl)-2-(pyridin-3-yl)ethan-1-one] | 99

tested on: GluN2B; assay: Western blot of GluN2B protein in cultured fetal cortical cells; format: cell-based, mice; settings: comment on Table 6
Experimental: The amount of GluN2B reacted with the compound of the present disclosure was measured using Western blot. The fetal cerebral cortex was extracted from mice at 17 days of gestation, dissociated into single cells, cultured for 13 days, and treated with BnH drugs for 24 hours. The drug-treated cells were subjected to protein lysate preparation using RIPA protein lysis buffer containing protease and phosphatase inhibitors. The protein concentration was determined using a BCA protein assay kit (Pierce Biotechnology) using bovine serum albumin as a standard. Equal amounts of protein (20 μg per lane) were separated by electrophoresis on SDS-polyacrylamide gels at 90 V for 2 hours, then transferred from the SDS-polyacrylamide gel to PVDF membrane at 100 V for 1 hour. Then, primary reaction with GluN2B antibody (ab65783, Abcam) was performed at 4° C. for 1 day, washed three times at 10-minutes intervals with 1×PBT, and secondary reaction was performed with anti-mouse antibody (sc-2357, Santa Cruz) for 1 hour, followed by washing three times at 10-minutes intervals with 1×PBT. Western blotting was performed as described above to confirm GluN2B protein expression. Subsequently, each blot was re-probed using anti-β-actin antibody (sc-47778, Santa Cruz). Housekeeping protein β-actin was detected as a normalization control.
The increase and decrease of BnH12 series were confirmed by setting the vehicle to 1 (N for each group was 3 or more).
Using the experimental procedure described in Example 3, it was determined whether various BnH12 series compounds increase GluN2B expression, and the results are shown in Table 6. These in vitro experimental results are expressed as relative values to the group (vehicle) that was not treated with the compound, with the effect of the group set to 1.

Row | SMILES | Effect on GluN2B expression compared to the vehicle
21 | O=C(NO)[C@H]1CCCN1C(=O)c1ccccc1 [BnH12018, (R)-1-benzoyl-N-hydroxypyrrolidine-2-carboxamide] | excellent effects
22 | COc1ccc(CC(=O)N2C[C@H](C(=O)O)CC[C@@H]2C)cc1 [BnH12025, (3R,6S)-1-(2-(4-methoxyphenyl)acetyl)-6-methylpiperidine-3-carboxylic acid] | excellent effects
23 | C[C@H]1CC[C@@H](C(=O)[O-])CN1C(=O)Cc1cccnc1.[Na+] [BnH12038, Sodium (3R,6S)-6-methyl-1-(2-(pyridin-3-yl)acetyl)piperidine-3-carboxylate] | excellent effects
24 | C[C@H]1CCCCN1C(=O)Cc1cccnc1 [BnH12060, (S)-1-(2-methylpiperidin-1-yl)-2-(pyridin-3-yl)ethan-1-one] | excellent effects

same assay, conditions: relative value, vehicle set to 1; treated for 24 hours; N 3 or more

Row | SMILES | GluN2B expression, Western blot results, Mean
25 | C[C@H]1CCCCN1C(=O)Cc1ccc(F)cc1Cl [BnH12005, (S)-2-(2-chloro-4-fluorophenyl)-1-(2-methylpiperidin-1-yl)ethan-1-one] | 1.206
26 | C[C@H]1CC[C@@H](C(=O)O)CN1C(=O)CC1CCCCC1 [BnH12006, (3R,6S)-1-(2-cyclohexylacetyl)-6-methylpiperidine-3-carboxylic acid] | 1.238
27 | C[C@H]1CC[C@@H](C(=O)O)CN1C(=O)Cc1ccccc1 [BnH12007, (3R,6S)-6-methyl-1-(2-phenylacetyl)piperidine-3-carboxylic acid] | 1.311
28 | C[C@H]1CC[C@@H](C(=O)NO)CN1C(=O)Cc1ccc(F)cc1Cl [BnH12009, (3R,6S)-1-(2-(2-chloro-4-fluorophenyl)acetyl)-N-hydroxy-6-methylpiperidine-3-carboxamide] | 1.248
29 | O=C(NO)[C@@H]1CCCN1C(=O)Cc1ccc(F)cc1Cl [BnH12016, (S)-1-(2-(2-chloro-4-fluorophenyl)acetyl)-N-hydroxypyrrolidine-2-carboxamide] | 1.311
30 | O=C(NO)[C@H]1CCCN1C(=O)c1ccccc1 [BnH12018, (R)-1-benzoyl-N-hydroxypyrrolidine-2-carboxamide] | 1.381
31 | COc1ccc(CC(=O)N2C[C@H](C(=O)O)CC[C@@H]2C)cc1 [BnH12025, (3R,6S)-1-(2-(4-methoxyphenyl)acetyl)-6-methylpiperidine-3-carboxylic acid] | 1.582
32 | C[C@H]1CC[C@@H](C(=O)[O-])CN1C(=O)Cc1cccnc1.[Na+] [BnH12038, Sodium (3R,6S)-6-methyl-1-(2-(pyridin-3-yl)acetyl)piperidine-3-carboxylate] | 1.811
33 | C[C@H]1CC[C@@H](C(=O)[O-])CN1C(=O)Cc1ccccn1.[Na+] [BnH12039, Sodium (3R,6S)-6-methyl-1-(2-(pyridin-2-yl)acetyl)piperidine-3-carboxylate] | 1.103
34 | C[C@H]1CCCCN1C(=O)Cc1cccnc1 [BnH12060, (S)-1-(2-methylpiperidin-1-yl)-2-(pyridin-3-yl)ethan-1-one] | 1.469
